Values of other authors as cited in patent US6815424B2, “Intranasal administration of polypeptides in powdered form” (Pfizer Corporation, priority 1987, dated 2004).

Settings: in vivo, inhaled or intranasal

Compound: CC(C)C[C@H](NC(=O)[C@@H](Cc1ccc2ccccc2c1)NC(=O)[C@H](Cc1ccc(O)cc1)NC(=O)[C@H](CO)NC(=O)[C@H](Cc1c[nH]c2ccccc12)NC(=O)[C@H](Cc1c[nH]cn1)NC(=O)[C@@H]1CCC(=O)N1)C(=O)N[C@@H](CCCNC(=N)N)C(=O)N1CCC[C@H]1C(=O)NCC(N)=O [nafarelin acetate, L-pyroglutamyl-L-histidyl-L-tryptophyl-L-seryl-L-tyrosyl-D-3-(2-naphthyl)alanyl-L-leucyl-L-arginyl-L-prolyl-glycinamide]
- bioavailability compared to injection: about 2%
